Laboratory results: patent publication US20070190191A1, “Use of geraniol in antitumoral therapy” (priority 2003, published 2007)
Read-outs that look alike come from different tables or passages of the source.

How the values were obtained:
Caco-2 cells [1] = assay: Caco-2 cell growth with CPT-11 and geraniol; type: cell-based; conditions: Homo sapiens, 192 h, Caco-2, 8 days treatment
Method: (§1) Cells were seeded in 96-well plates and incubated for different times. Cell growth was stopped by addition of 50 μl of trichloroacetic acid (50%, v/v), and the protein content of each well was determined by staining with sulforhodamine B (Skehan et al., 1990): Absorbance was determined at 490 nm.
The effect of various doses of CPT-11 alone or in combination with geraniol was determined after 8 days of treatment of Caco-2 cells. Concentrations of CPT-11 of from 0.2 to 0.8 μM were tested and geraniol was used at a concentration which induces a 10% inhibition of the cell growth (IC10).

Caco-2 cells [2] = assay: Electron microscopy of Caco-2 cell morphological differentiation; type: cell-based, human; conditions: confluent Caco-2 cells (7 days after seeding) treated 4 days; geraniol 400 μM, 5-FU 5 μM
Method: Caco-2 and SW620 cells were obtained from the European Collection of Animal Cell Culture (CERDIC, Sophia Antipolis, France) and were cultured in 75-cm^2 Falcon flasks containing Dulbecco's modified Eagle's medium (DMEM) and 25 mM glucose supplemented with 10% heat-inactivated horse serum, 100 U/ml penicillin, and 100 μg/ml streptomycin. Cells were incubated at 37° C. in a humidified atmosphere of 5% CO2 and subcultured after trypsinization (0.5% trypsin/2.6 mM EDTA). They were used for up to 30 to 40 passages.
(§2) In all experiments, cells were seeded at 6×10^5 cells on culture dishes (100 mm in diameter), or at 4500 cells/well in 96-well plates. Caco-2 and SW620 cells were grown in DMEM supplemented with 3% horse serum, 5 μg/ml transferrin, 5 ng/ml selenium, and 10 μg/ml insulin (TSI defined medium; Invitrogen, SARL, Cergy-Pontoise, France). Geraniol (Sigma-Aldrich, Saint Louis, Mo.) was dissolved in absolute ethanol, and 5-FU (Teva Pharmachemie B.V., Mijdrecht, The Netherlands) was diluted in PBS at a final concentration of 50 mg/ml. The compounds were added to the culture medium 24 h or 7 days after cell seeding (final concentration of ethanol, 0.1%).
In all experimental conditions, culture medium, geraniol, and 5-FU were replaced every 24 h. […]

confluent Caco-2 cells = assay: Cell growth (sulforhodamine B), confluent Caco-2 cells; type: cell-based, human; conditions: for cell loss: confluent Caco-2, 8 days treatment, geraniol 400 μM (IC30), 5-FU 1 μM
Method: as §2
In all experimental conditions, culture medium, geraniol, and 5-FU were replaced every 24 h. Cells were harvested after various times, washed three times with phosphate-buffered saline (PBS) (pH 7.2), and kept at −70° C. until assays were performed.
as §1
The effects of increasing doses of 5-FU alone or in combination with geraniol were determined after treatment for 8 days. […] Geraniol and 5-FU were replaced every 24 h.
Statistical differences between control and geraniol-treated cells were evaluated using the Student's t test. Differences were considered to be significant for values of p<0.05.

growing Caco-2 cells = assay: Cell growth (sulforhodamine B), exponentially growing Caco-2 cells; type: cell-based, human
Method: as §2, §1
(§3) The comparative effects of geraniol and 5-FU were studied on exponentially growing Caco-2 and SW620 cells. Cells were cultured as described in Example 1. […]
(§4) The effects of graded doses of 5-FU alone or in combination with geraniol were determined. […]

SW620 cells = assay: Cell growth (sulforhodamine B), growing SW620 cells; type: cell-based; conditions: Homo sapiens, SW-620, 192 h, 8 days treatment, in the combination geraniol at IC30, read-out: IC50 5-FU, SW620
Method: as §2, §1, §3, §4

Caco-2 cells [3] = assay: Apoptosis: DNA fragmentation ladder and annexin V-FITC labeling; type: cell-based, human; conditions: exponentially growing and confluent Caco-2 cells, 24 h; 5-FU 5 μM, geraniol IC30 400 μM
Method: After trypsinization, cells were collected by centrifugation and stored at −80° C. Apoptotic DNA was separated from genomic DNA, using the Suicide Track DNA ladder kit (Oncogene Research Products, Cambridge, Mass.). DNA fragments were separated by electrophoresis and stained with ethidium bromide. Apoptosis was further tested by evaluating phosphatidylserine membrane externalization by measuring annexin V-conjugated fluorescein isothiocyanate (FITC) binding using an Annexin V-FITC kit (Medsystems Diagnostics GmbH, Vienna, Austria). Briefly, cells were washed in cold PBS without calcium and, for each sample, 5×10^5 cells were resuspended in 100 μl of reaction buffer (10 μl of binding buffer 10-fold concentrated, 10 μl of propidium iodide, 1 μl of annexin V-FITC, and 79 μl of deionized water. After incubation for 15 min in the dark at room temperature, each sample was diluted with binding buffer to obtain an appropriate final volume for flow cytometry.

[4] = system: human colonic tumors TC-118; assay: Growth of 5-FU-resistant human colonic tumors transplanted in nude mice; type: in vivo, Swiss nu/nu mice; conditions: day 14
Method: The effect of geraniol and 5-FU were evaluated in vivo on the growth of 5-FU-resistant human colonic tumors ([…]) transplanted in Swiss nu/nu mice. TC 118 is the hepatic metastasis of a primary human colorectal tumor is used as xénogreffe. Fresh fragments of the tumor are implanted in the subcutaneous tissue of female Swiss nulnu mice of from 5 to 6 weeks. The appearance of the tumor is watched by a bi-weekly exam of mice and the time of appearance is registered. Tumors are detected by palpation as soon as they measure approximately 3×3 mm (that is approximately 15 mm^3). […] Tumors are measured with a calliper rule, 3 times a week, until the sacrifice of the animal. Two perpendicular diameters are measured and the volumes of tumors are calculated according to the following equation: V=A×B^2/2 where A represents the large diameter and B the small diameter. The relative tumoral volume (VTR) is calculated according to the formula: VTR=Volume at day D/Initial volume […] When these molecules were given in combination, they were injected simultaneously. A control group was treated with excipient (NaCl 0.9%). The mean value of the VTR was calculated for every group on every day corresponding to the measure of tumors. The curves of tumoral growth were obtained in every experimental group or for every individual tumor by reporting the values of the VTR as a function of time (expressed in days after the beginning of the treatment). The measures were individually recorded, allowing a follow-up of the tumoral growth. […] Mice not presenting tumors were sacrificed at the same time. The percentage of inhibition of the tumoral growth was calculated at day 14 for the various treatments, according to the formula: (VTR of treated mice/VTR of control mice)×100. Results

Caco-2 cells [5] = assay: Brush-border membrane hydrolase assays (functional differentiation); type: cell-based; conditions: Homo sapiens, 168 h, 400 μM geraniol, Caco-2 at confluency (7 days after seeding), brush-border membranes
Method: Brush-border membranes were isolated as described by Schmitz et al. (1973). Sucrase activity was determined according to Messer and […] (1966) and lactase activity according to Koldovsky et al. (1969). Alkaline phosphatase activity was assayed by the method of Garen and […] (1960), and N-aminopeptidase activity was determined according to Maroux et al. (1973).

Caco-2 cells [6] = assay: Cytotoxicity by LDH release into the culture medium; type: cell-based, human; conditions: confluent Caco-2 (7 days after seeding), 4 days treatment, geraniol alone 400 μM
Method: To determine cytotoxicity, cells (4×10^5/well) were seeded on culture dishes (100 nm diameter) and incubated in DMEM culture medium supplemented with 3% FCS. On the 7th day after seeding, cells were incubated with 5-FU (5 μM) alone or together with geraniol (IC30: 400 μM) and 5-FU for 1, 2, 3, and 4 days. Then, cytotoxicity was assessed by determining the release of lactate dehydrogenase (LDH) (Skehan et al., 1990) into the culture medium using the Cyto Tox R nonradioactive cytotoxicity assay kit (Promega, Madison, Wis.).

Row | Structure (SMILES) | IC50 (Caco-2 cells [1]; in the combination geraniol at IC10, read-out: IC50 CPT-11) | brush-border microvilli (transmission electron microscopy) (Caco-2 cells [2]) | IC50 (confluent Caco-2 cells; Homo sapiens, Caco-2, 192 h, 8 days treatment, in the combination geraniol at its IC30 (400 μM), read-out: IC50 5-FU, Caco-2 Confluent) | cell loss (confluent Caco-2 cells) | IC50 (growing Caco-2 cells; Homo sapiens, Caco-2, 8 days treatment from 24 h after seeding, in the combination geraniol at its IC30 (200 μM), read-out: IC50 5-FU, Caco-2 Growing) | IC50 (SW620 cells) | annexin V labeling (flow cytometry) (Caco-2 cells [3]) | apoptotic DNA fragmentation ladders (Caco-2 cells [3]) | inhibition of the tumoral growth ([4]; 5-FU alone 20 mg/kg/day i.p. for 5 days) | inhibition of the tumoral growth ([4]; 5-FU alone 40 mg/kg/day i.p. for 5 days) | inhibition at 400 µM (Caco-2 cells [5]; read-out: inhibition of the increase in alkaline phosphatase activity) | inhibition at 400 µM (Caco-2 cells [5]; read-out: inhibition of the increase in aminopeptidase activity) | inhibition at 400 µM (Caco-2 cells [5]; read-out: inhibition of the increase of lactase activity) | inhibition at 400 µM (Caco-2 cells [5]; read-out: inhibition of the increase of sucrase activity) | IC30 of geraniol (confluent Caco-2 cells; Caco-2 cells at confluency) | IC30 of geraniol (growing Caco-2 cells; growing Caco-2 cells) | cytotoxic effect (LDH release) (Caco-2 cells [6]) | inhibition of the tumoral growth ([4]; geraniol alone 150 mg/kg/day i.p. for 5 days) | IC50 (Caco-2 cells [1]; in the combination CPT-11 at IC10, read-out: IC50 Geraniol)
1 | CCc1c2c(nc3ccc(OC(=O)N4CCC(N5CCCCC5)CC4)cc13)-c1cc3c(c(=O)n1C2)COC(=O)[C@]3(O)CC [CPT-11, irinotecan, reference compound] | 0.7 µM |  |  |  |  |  |  |  |  |  |  |  |  |  |  |  |  |  | 
2 | O=c1[nH]cc(F)c(=O)[nH]1 [5-FU, 5-fluorouracil] |  | did not modify brush-border membranes | 25 µM | 25% | 0.4 µM | 2 µM | absence of annexin V labeling | did not exhibit apoptotic DNA fragmentation ladders | no effect | 30% |  |  |  |  |  |  |  |  | 
3 | CC(C)=CCC/C(C)=C/CO [geraniol] |  | microvilli were scarce, and they were shorter |  | 30% |  |  |  |  |  |  | ~50% | ~50% | ~70% | ~90% | 400 µM | 200 µM | no cytotoxic effect | 26% | 200 ± 0.03 µM
